Measurements as given in patent US20110070314A1 (priority 2009, published 2011).

Assays:
[1] = test system: brain tumors; settings: human, in vivo
[2] = test system: U373 cells; format: cell-based, human
[3] = test system: U138 cells; format: cell-based, human
[4] = test system: T98G cells; format: cell-based, human
[5] = test system: U-87MG cells; format: cell-based, human
[6] = test system: U-87MG orthotopic glioblastoma; settings: mouse, in vivo
[7] = test system: U-87MG orthotopic glioblastoma; settings: mouse, in vivo; remark: listed apart in the source
[8] = mouse, in vivo
[9] = mouse, in vivo; remark: listed apart in the source

sodium meta arsenite
MRI finding on brain tumor [1]: brain tumor was completely gone. | Side effects [1]: Pt # 1 did not find any particular | Time until pain lessened [1]: side effects, and within 5 days them | Effect on lung cancer ([1]; iv): conditions appear to be stable. | Effect on tumor in the brain ([1]; iv): the tumor in the brain disappeared | Anticancer effect (cell viability) vs control [2]: significant anticancer effects | Dose dependence of anticancer effect [2]: dose-dependent anticancer effects | Anticancer effect (cell viability) vs control [3]: significant anticancer effects | Dose dependence of anticancer effect [3]: dose-dependent anticancer effects | Anticancer effect (cell viability) vs control [4]: significant anticancer effects | Dose dependence of anticancer effect [4]: dose-dependent anticancer effects | Anticancer effect (cell viability) vs control [5]: significant anticancer effects | Dose dependence of anticancer effect [5]: dose-dependent anticancer effects | Body weight difference between groups [6]: no significant difference | Inhibition of tumor growth ([6]; po, 1.25 mg/kg): 28% | Tumor mass ([6]; po, 1.25 mg/kg): 40.2±12.3 mm^3 | MRI imaging of tumor mass ([6]; po, 5 mg/kg): decrease of tumor mass | Serum ALT and AST difference between the groups [7]: no significant difference | Anticancer effect ([7]; po, 10 mg/kg): no anticancer effect | Adverse effects following oral and IV administration [8]: No adverse effects were observed | Clinical signs during testing [8]: No clinical signs were observed | Crossing of the blood brain barrier [9]: can readily cross the blood brain barrier
